The values that follow come from patent US20200016159A1, “N3-CYCLICALLY SUBSTITUTED THIENOURACILS AND USE THEREOF” (Bayer Aktiengesellschaft, priority 2016, published 2020).

This experiment has as its target T1, human adenosine A2b receptor (Homo sapiens, UniProt P29275).
T1 sequence (P29275 1-332): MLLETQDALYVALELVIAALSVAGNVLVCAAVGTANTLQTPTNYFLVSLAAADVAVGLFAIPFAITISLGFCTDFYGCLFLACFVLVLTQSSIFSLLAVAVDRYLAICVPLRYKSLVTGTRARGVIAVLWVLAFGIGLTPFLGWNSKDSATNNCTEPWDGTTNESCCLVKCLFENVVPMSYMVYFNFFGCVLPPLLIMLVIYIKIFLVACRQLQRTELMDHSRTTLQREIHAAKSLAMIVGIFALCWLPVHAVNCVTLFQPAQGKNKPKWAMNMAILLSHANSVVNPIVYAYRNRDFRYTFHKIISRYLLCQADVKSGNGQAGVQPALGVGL
As to the kind of experiment: Cellular in vitro reporter gene test for A2b receptor activity (antagonism of NECA). Format: cell-based. The settings on record: recombinant CHO-K1 cells, CRE-luciferase reporter, co-incubation with EC50 concentration of NECA, 3 hours. Also noted: expressed in transfected cells; host or cells: CHO-K1 (Chinese hamster ovary) with CRE-luciferase reporter. In outline:
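Antagonism measured as block of NECA-induced, cAMP/CRE-dependent luciferase expression in recombinant A2b CHO-K1 cells. NECA used at the EC50 set in a pre-experiment on each test day; luminescence detected after 3 h. Reported as IC50, partly averaged and rounded to two significant figures.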

Regarding `COCCn1c(=O)n(C2CC(F)(F)C2)c(=O)c2c(C)c(Cn3nc[nH]c3=O)sc21` [Example 129, 3-(3,3-Difluorocyclobutyl)-1-(2-methoxyethyl)-5-methyl-6-[(5-oxo-4,5-dihydro-H-1,2,4-triazol-1-yl)methyl]thieno[2,3-d]pyrimidine-2,4(1H,3H)-dione], the 50% inhibitory concentration (IC50) (usually the point on the concentration scale where inhibition reaches its midpoint) was determined as 280 nM.

With `Cc1c(CN2CCNC2=O)sc2c1c(=O)n(C1COC1)c(=O)n2CCC(F)(F)F` [Example 130, 5-Methyl-3-(oxetan-3-yl)-6-[(2-oxoimidazolidin-1-yl)methyl]-1-(3,3,3-trifluoropropyl)thieno[2,3-d]pyrimidine-2,4(1H,3H)-dione], the concentration for half-maximal inhibition (IC50) was found to be 14 nM. Next, `Cc1c(CN2CCNC2=NC#N)sc2c1c(=O)n(C1COC1)c(=O)n2CCC(F)(F)F` [Example 131, [1-{[5-Methyl-3-(oxetan-3-yl)-2,4-dioxo-1-(3,3,3-trifluoropropyl)-1,2,3,4-tetrahydrothieno[2,3-d]pyrimidin-6-yl]methyl}imidazolidin-2-ylidene]cyanamide]: 68 nM. For the compound `COC(=O)N=C1NCCN1Cc1sc2c(c1C)c(=O)n(C1COC1)c(=O)n2CCC(F)(F)F` [Example 132, Methyl [1-{[5-methyl-3-(oxetan-3-yl)-2,4-dioxo-1-(3,3,3-trifluoropropyl)-1,2,3,4-tetrahydrothieno[2,3-d]pyrimidin-6-yl]methyl}imidazolidin-2-ylidene]carbamate], the IC50 is 11 nM.

On to `Cc1c(CN2CCNC(=O)C2=O)sc2c1c(=O)n(C1COC1)c(=O)n2CCC(F)(F)F` [Example 133, 6-[(2,3-Dioxopiperazin-1-yl)methyl]-5-methyl-3-(oxetan-3-yl)-1-(3,3,3-trifluoropropyl)thieno[2,3-d]pyrimidine-2,4(1H,3H)-dione], for which the IC50 amounted to 430 nM. Regarding `Cc1c(CN2CCNC2=O)sc2c1c(=O)n(C1(C)CCC1)c(=O)n2CCC(F)(F)F` [Example 134, 5-Methyl-3-(1-methylcyclobutyl)-6-[(2-oxoimidazolidin-1-yl)methyl]-1-(3,3,3-trifluoropropyl)thieno[2,3-d]pyrimidine-2,4(1H,3H)-dione], the IC50 was determined as 34 nM. Regarding `Cc1c(CN2CCNC2=NC#N)sc2c1c(=O)n(C1(C)CCC1)c(=O)n2CCC(F)(F)F` [Example 135, [1-{[5-Methyl-3-(1-methylcyclobutyl)-2,4-dioxo-1-(3,3,3-trifluoropropyl)-1,2,3,4-tetrahydrothieno[2,3-d]pyrimidin-6-yl]methyl}imidazolidin-2-ylidene]cyanamide], the IC50 was 48 nM.

Take `COC(=O)N=C1NCCN1Cc1sc2c(c1C)c(=O)n(C1(C)CCC1)c(=O)n2CCC(F)(F)F` [Example 136, Methyl [1-{[5-methyl-3-(1-methylcyclobutyl)-2,4-dioxo-1-(3,3,3-trifluoropropyl)-1,2,3,4-tetrahydrothieno[2,3-d]pyrimidin-6-yl]methyl}imidazolidin-2-ylidene]carbamate]: the IC50 was 19 nM. As to `Cc1c(CN2CCNC(=O)C2=O)sc2c1c(=O)n(C1(C)CCC1)c(=O)n2CCC(F)(F)F` [Example 137, 6-[(2,3-Dioxopiperazin-1-yl)methyl]-5-methyl-3-(1-methylcyclobutyl)-1-(3,3,3-trifluoropropyl)thieno[2,3-d]pyrimidine-2,4(1H,3H)-dione], the IC50 was 77 nM. For `Cc1c(Cn2nc[nH]c2=O)sc2c1c(=O)n(C1(C)CCC1)c(=O)n2CCC(F)(F)F` [Example 138, 5-Methyl-3-(1-methylcyclobutyl)-6-[(5-oxo-4,5-dihydro-1H-1,2,4-triazol-1-yl)methyl]-1-(3,3,3-trifluoropropyl)thieno[2,3-d]pyrimidine-2,4(1H,3H)-dione], the IC50 stood at 260 nM. To `COCCn1c(=O)n(C2(C)CCC2)c(=O)c2c(C)c(CN3CCNC3=O)sc21` [Example 139, 1-(2-Methoxyethyl)-5-methyl-3-(1-methylcyclobutyl)-6-[(2-oxoimidazolidin-1-yl)methyl]thieno[2,3-d]pyrimidine-2,4(1H,3H)-dione] belongs 310 nM; to `COCCn1c(=O)n(C2(C)CCC2)c(=O)c2c(C)c(CN3CCNC3=NC#N)sc21` [Example 140, [1-{[1-(2-Methoxyethyl)-5-methyl-3-(1-methylcyclobutyl)-2,4-dioxo-1,2,3,4-tetrahydrothieno[2,3-d]pyrimidin-6-yl]methyl}imidazolidine-2-ylidene]cyanamide], 230 nM; to `COCCn1c(=O)n(C2(C)CCC2)c(=O)c2c(C)c(CN3CCNC3=NC(=O)OC)sc21` [Example 141, Methyl [1-{[1-(2-methoxyethyl)-5-methyl-3-(1-methylcyclobutyl)-2,4-dioxo-1,2,3,4-tetrahydrothieno[2,3-d]pyrimidin-6-yl]methyl}imidazolidine-2-ylidene]carbamate], 110 nM. Next, `COCCn1c(=O)n(C2(C)CCC2)c(=O)c2c(C)c(CN3CCNC(=O)C3=O)sc21` [Example 142, 6-[(2,3-Dioxopiperazin-1-yl)methyl]-1-(2-methoxyethyl)-5-methyl-3-(1-methylcyclobutyl)thieno[2,3-d]pyrimidine-2,4(1H,3H)-dione]: 460 nM. Regarding `COCCn1c(=O)n(C2(C)CCC2)c(=O)c2c(C)c(Cn3nc[nH]c3=O)sc21` [Example 143, 1-(2-Methoxyethyl)-5-methyl-3-(1-methylcyclobutyl)-6-[(5-oxo-4,5-dihydro-H-1,2,4-triazol-1-yl)methyl]thieno[2,3-d]pyrimidine-2,4(1H,3H)-dione], the IC50 came out at 880 nM. Next, `CO[C@H]1C[C@H](n2c(=O)c3c(C)c(CN4CCNC4=O)sc3n(CCC(F)(F)F)c2=O)C1` [Example 144, 3-(trans-3-Methoxycyclobutyl)-5-methyl-6-[(2-oxoimidazolidin-1-yl)methyl]-1-(3,3,3-trifluoropropyl)thieno[2,3-d]pyrimidine-2,4(1H,3H)-dione]: 10 nM; `CO[C@H]1C[C@H](n2c(=O)c3c(C)c(CN4CCNC4=NC#N)sc3n(CCC(F)(F)F)c2=O)C1` [Example 145, [1-{[3-(trans-3-Methoxycyclobutyl)-5-methyl-2,4-dioxo-1-(3,3,3-trifluoropropyl)-1,2,3,4-tetrahydrothieno[2,3-d]pyrimidin-6-yl]methyl}imidazolidin-2-ylidene]cyanamide]: 23 nM; `COC(=O)N=C1NCCN1Cc1sc2c(c1C)c(=O)n([C@H]1C[C@H](OC)C1)c(=O)n2CCC(F)(F)F` [Example 146, Methyl [1-{[3-(trans-3-methoxycyclobutyl)-5-methyl-2,4-dioxo-1-(3,3,3-trifluoropropyl)-1,2,3,4-tetrahydrothieno[2,3-d]pyrimidin-6-yl]methyl}imidazolidin-2-ylidene]carbamate]: 6.2 nM.

Take `CO[C@H]1C[C@H](n2c(=O)c3c(C)c(CN4CCNC(=O)C4=O)sc3n(CCC(F)(F)F)c2=O)C1` [Example 147, 6-[(2,3-Dioxopiperazin-1-yl)methyl]-3-(trans-3-methoxycyclobutyl)-5-methyl-1-(3,3,3-trifluoropropyl)thieno[2,3-d]pyrimidine-2,4(1H,3H)-dione]: the half-maximal inhibitory concentration (IC50) was 48 nM. Consider `CO[C@H]1C[C@H](n2c(=O)c3c(C)c(Cn4nc[nH]c4=O)sc3n(CCC(F)(F)F)c2=O)C1` [Example 148, 3-(trans-3-Methoxycyclobutyl)-5-methyl-6-[(5-oxo-4,5-dihydro-1H-1,2,4-triazol-1-yl)methyl]-1-(3,3,3-trifluoropropyl)thieno[2,3-d]pyrimidine-2,4(1H,3H)-dione], for which the half-inhibitory concentration (IC50) turned out to be 66 nM.
